Data on 1 compound can be found in patent publication US20230381202A1, “COMPOSITIONS AND METHODS FOR TREATING CARDIOVASCULAR RELATED DISORDERS” (The Regents of the University of Michigan, priority 2020, published 2023).

Data set [1] relates to washed human platelets. Briefly: In vitro washed human platelet aggregation test (thrombin-induced). The class given is cell-based. The following applies: ML355 10 μM, sHDL 100 μg/mL, 15 minutes. The method, then:
Human platelets were prepared and aggregation was assayed as described previously (44, 45, 56). Platelets were incubated with DMSO (equivalent volume to dissolve ML355) and treated with control, ML355 (10 μM), sHDL (100 μg/mL), or ML355-sHDL (sHDL at 100 μg/mL and ML355 at 10 μM) for 15 minutes. In addition, untreated platelets were included as control. Platelet aggregation was induced by various doses of thrombin (0.1-1 nM) as reported in previous studies (44). Aggregation was measured in response to thrombin with a lumi-aggregometer (Model 700D; Chrono-Log) under stirring conditions at 1100 rpm at 37° C.

For data set [2], the system named is washed mouse platelets. The data set is described as follows: Ex vivo washed mice platelet activation inhibition test (thrombin-induced aggregation). The class given is in vivo. Conditions: for platelet aggregation: 24 hours after IV ML355 1.5 mg/kg, sHDL 50 mg/kg. The method, then:
Male and female C57BL/6J mice were divided into four groups (n=4) and intravenously dosed with the following formulations: 1) control vehicle (equivalent volume); 2) ML355 (1.5 mg/kg); 3) sHDL (50 mg/kg); or 4) ML355-sHDL (sHDL at 50 mg/kg and ML355 at 1.5 mg/kg). 24 hours after administration, mice were sacrificed under terminal anesthesia. […] Mouse platelet preparation was performed as previously described (44, 45). Murine platelets were resuspended at 3×10^8 platelets/mL in Tyrode's buffer. Mouse platelet aggregation was induced by various doses of thrombin (0.1-0.5 nM) and measured with a lumi-aggregometer using the same method described above.

Data set [3] relates to platelets. The data set is described as follows: Phosphatidylserine exposure on platelets. The following applies: 1, 6 and 24 hours post IV; compared to resting platelets. The class given is in vivo, mouse. The procedure:
Male and female C57BL/6J mice (n=6) were intravenously dosed with the following treatments: 1) Saline control (equivalent volume); 2) ML355 (1.5 mg/kg); 3) sHDL (50 mg/kg); or 4) ML355-sHDL (sHDL at 50 mg/kg and ML355 at 1.5 mg/kg). At different time points post administration (1, 6 and 24 hours), the phosphatidylserine-exposure over time course in platelets from different groups were quantified by flow cytometry. Briefly, whole blood was collected from the saphenous vein and incubated with PE anti-mouse CD41 Antibody (BioLegend #133906) for platelet labeling and Annexin V, Alexa Fluor™ 647 conjugate (phosphatidylserine-exposure) (Thermo Fisher Scientific). The mean fluorescent intensity of Annexin in platelets was quantified by flow cytometry. In addition, blood collected from mice prior to treatment was taken as resting platelets (negative control) and blood stimulated with PAR4-AP (200 μM) was used as activated platelets (positive control).

Data set [4] concerns whole blood. The data set is described as follows: Coagulation tests by thromboelastography. The class given is in vivo, mouse. The following applies: 24 hours post IV; ML355 1.5 mg/kg, sHDL 50 mg/kg. The procedure: Male and female C57BL/6J mice (n=6) were intravenously injected with vehicle control (equivalent volume of saline), ML355 (1.5 mg/kg), sHDL (50 mg/kg) or ML355-sHDL (sHDL at 50 mg/kg and ML355 at 1.5 mg/kg), respectively. 24 hours after administration, mice were anesthetized by intraperitoneal injection of ketamine/xylazine mixture as described above. Whole blood was collected via vena cava using a 25 G syringe containing sodium citrate 3.8% (blood to citrate volume ratio is […]). 340 μL citrated blood was mixed with 20 μL CaCl2 (0.2 mol/L), and viscoelastic properties of whole blood clot formation was studied under low shear stress using a Heamoscope TEG 5000 Thrombelastograph Hemostasis Analyzer (Haemonetics Corp., Braintree, Massachusetts, USA) according to the manufacturer's instructions. Major coagulation parameters including R time (time to formation of the initial fibrin threads), Alpha angle (the rapidity with which the clot forms), K time (the time until the clot reaches a certain strength) and maximum amplitude (clot's maximum strength) were analyzed and compared among different groups.

Data set [5] relates to C57BL/6J mice. The data set is described as follows: Laser-induced cremaster arteriole thrombosis model. The class given is in vivo, mouse. Conditions: IV 24 hours before injury; ML355 1.5 mg/kg, sHDL 50 mg/kg. The method, then: Male C57BL/6J mice (n=3) were intravenously dosed with the following treatments: 1) saline control (equivalent volume); 2) ML355 (1.5 mg/kg); 3) sHDL (50 mg/kg); or 4) ML355-sHDL (sHDL at 50 mg/kg and ML355 at 1.5 mg/kg). 24 hours post-administration, mice were anesthetized and surgically prepared as above described. DyLight 647-conjugated rat anti-mouse platelet GP11:43 antibody (0.1 μg/g; X649; EMFRET Analytics) was administered by jugular vein cannula prior to vascular injury. Multiple independent thrombi (8-10) were induced in the arterioles (30-50 μm diameter) in each mouse (3 mice per group) by a laser ablation system. All captured images were analyzed for change in fluorescent intensity over time of thrombus formation by subtracting fluorescent background defined on an uninjured section of the vessel using the Slidebook program. To monitor and compare dynamic thrombus formation among different treatment groups, the relative fluorescent intensity of Alexa Flour 647-labled platelets (recruited within thrombus) was plotted using the mean fluorescence at each time point. Data were evaluated for significance with two-way ANOVA and Mann-Whitney test for nonparametric data using Prism 6 software (Graphpad, La Jolla, CA, USA).

The conditions of data set [6]: pH 7.4 PBS; cited from earlier work.
The test system of data set [7] is C57BL/6J mice. The data set is described as follows: FeCl3-induced carotid artery thrombosis model. The following applies: IV 24 hours before 10% FeCl3 injury. The class given is in vivo, mouse. The method, then:
Male and female C57BL/6J mice (n=6) were intravenously injected with vehicle control (equivalent volume of saline), ML355 (1.5 mg/kg), sHDL (50 mg/kg) or ML355-sHDL (sHDL at 50 mg/kg and ML355 at 1.5 mg/kg), respectively. 24 hours post-administration, mice were anesthetized as described above and tail veins were injected with a DyLight 488 anti-GPIb (1 μg/g; Emfret, Elbelstadt, Germany) to label circulating resting platelets in mice prior to intravital microscopy imaging. The mice were placed on a heating pad and the right common carotid artery was prepared under the dissecting microscope. Then, the mice were placed on the microscopic stage and blood flow in the carotid artery was visualized under 10× air objective using a Zeiss Axio Examiner Z1 upright fluorescent microscopy. Carotid artery injury was induced by topically placing a 10% FeCl3 saturated Whatman paper for 3 minutes under recording. Images of platelet adhesion and the dynamics of thrombus formation were recorded for 30 minutes using a high-speed sCMOS camera using Slidebook 6.0.

Data set [8] relates to C57BL/6J mice. Briefly: Mouse tail bleeding assay. The following applies: 24 hours post IV; ML355 1.5 mg/kg, sHDL 50 mg/kg. The class given is in vivo. The method, then: Male and female C57BL/6J mice (n=6) were intravenously dosed with the following treatments: 1) vehicle control (equivalent volume); 2) ML355 (1.5 mg/kg); 3) sHDL (50 mg/kg); or 4) ML355-sHDL (sHDL at 50 mg/kg and ML355 at 1.5 mg/kg). The tail bleeding assay was performed post 24 hour of treatment as previously described (44, 56). Briefly, mice were anesthetized as described above and placed on a heating pad. Five millimeters of tail tip was excised, and the tails were immediately immersed in 14 mL of sterile saline at 37° C. Bleeding time was recorded as the cessation of blood flow from the tail for at least […] using a stopwatch. The amount of blood loss from tail tip was quantified by measuring hemoglobin using Drabkin's reagent (Sigma). Briefly, blood samples were pelleted at 500 g for 10 minutes at room temperature, and the pellet was resuspended in 5 mL Drabkin's Reagent and incubated at room temperature for 15 minutes. Amount of hemoglobin lost was quantified by comparing the absorbance of the samples at 540 nm using SpectraMax i3 microplate reader (Molecular Devices LLC., San Jose, CA) to a standard curve of bovine hemoglobin in Drabkin's reagent.

The structures appear in SMILES notation.

On to `COc1cccc(CNc2ccc(S(=O)(=O)Nc3nc4ccccc4s3)cc2)c1O` [ML355, N-2-benzothiazolyl-4-[[(2-hydroxy-3-methoxyphenyl)methyl]amino]-benzenesulfonamide], for which the platelet aggregation in data set [1] (0.1 nM thrombin) came out at 5.6±2.5%; in data set [1] (0.25 nM thrombin), 40.4±6.8%; in data set [1] (0.5 nM thrombin), 76.4±4.7%; in data set [2] (0.1 nM thrombin), 20.3±3.5%; in data set [2] (0.25 nM thrombin) it was 32.6±6.6%. For the same compound, in data set [2] (0.5 nM thrombin, 24 hours after IV dosing), the “inhibitory effects on platelet aggregation” value is on record as “overcome”. In data set [3], the platelet phosphatidylserine exposure result is on record as “did not increase”. For the same compound, in data set [4], the “coagulation (TEG parameters R time, K time, alpha angle, MA)” value is given as “did not compromise the coagulation”. Besides, in data set [5], the “inhibition of thrombus formation (platelet accumulation in thrombi)” value is recorded as “varying levels of inhibition”. Besides, in data set [6], the estimated solubility was < 5 µg/mL. In data set [7], the “thrombus growth (and vessel occlusion)” value is “delayed and unstable”. Moreover, the “mean vessel occlusion time” value in data set [7] (ML355 1.5 mg/kg, sHDL 50 mg/kg) was determined as 11.0 ± 2.3 min. In addition, the “blood loss evaluated by measuring hemoglobin” value in data set [8] is “no effect”. Further, the tail bleeding time entry in data set [8] is “did not prolong”.
